For test [1], the target named is T1, 5-α reductase type I (Homo sapiens, UniProt P18405).
T1 construct: expressed in transfected cells; host or cells: HEK I cells (HEK line kept under Geneticin-418 selection)
T1 sequence (P18405 1-259): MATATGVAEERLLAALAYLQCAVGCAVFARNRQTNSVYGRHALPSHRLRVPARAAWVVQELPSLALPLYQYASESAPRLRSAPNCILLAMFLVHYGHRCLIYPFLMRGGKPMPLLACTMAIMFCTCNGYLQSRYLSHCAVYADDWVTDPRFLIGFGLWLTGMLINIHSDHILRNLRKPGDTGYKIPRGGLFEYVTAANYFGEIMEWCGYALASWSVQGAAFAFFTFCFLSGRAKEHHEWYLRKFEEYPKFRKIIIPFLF
The test can be described thus: Inhibition of 5-alpha-reductase type I in HEK I cells (conversion of [4-14C]-androstenedione to dihydroandrostenedione). It counts as cell-based.
Procedure: Les cellules de type HEK I et HEK II ont été utilisées dans du DMEM (pH 7.4) avec 10 % FCS, Penicillin/Streptomycin (100 U/mL and 100 µg/mL) et 0.5 mg/mL de Geneticin-418-sulfate. Les tests d'inhibition ont été réalisés à des concentrations cellulaires de 0.25 x 106 cellules par 1.9 cm^2 et incubées pendant 20 h, 5 % CO2 à 37 °C.

Test [2] addresses T2, 5-α reductase type II (Homo sapiens, UniProt P31213).
T2 construct: expressed in transfected cells; host or cells: HEK II cells (HEK line kept under Geneticin-418 selection)
T2 sequence (P31213 1-254): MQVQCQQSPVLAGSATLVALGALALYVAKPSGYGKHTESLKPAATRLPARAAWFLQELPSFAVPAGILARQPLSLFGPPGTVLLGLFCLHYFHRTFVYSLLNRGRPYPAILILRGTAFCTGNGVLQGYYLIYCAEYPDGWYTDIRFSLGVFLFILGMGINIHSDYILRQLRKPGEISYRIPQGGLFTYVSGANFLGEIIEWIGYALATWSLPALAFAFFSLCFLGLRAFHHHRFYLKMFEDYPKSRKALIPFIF
Kind of test: Inhibition of 5-alpha-reductase type II in HEK II cells (conversion of [4-14C]-androstenedione to dihydroandrostenedione). Conditions: for % inhibition de la 5-α reductase type II: n.i. = pas d'inhibition observée. It counts as cell-based. As for the experimental part: Les cellules de type HEK I et HEK II ont été utilisées dans du DMEM (pH 7.4) avec 10 % FCS, Penicillin/Streptomycin (100 U/mL and 100 µg/mL) et 0.5 mg/mL de Geneticin-418-sulfate. Les tests d'inhibition ont été réalisés à des concentrations cellulaires de […] cellules par 1.9 cm^2 et incubées pendant 20 h, 5 % CO2 à 37 °C.
Les composés sont dissous dans le DMSO et dilués avec le DMEM pour atteindre les concentrations finales de 100 µM, 10 µM et 1 µM.
Les mesures ont été réalisées grâce à un Phospholmager et les spots correspondant au [4-14C]-androstenedione (A) et au [4-14C]-dihydroandrostenedione (DHA) furent enregistrés avec le logiciel correspondant.
Les calculs ont été réalisés selon la formule suivante: % conversion = (PSL(DHA))/(PSL(DHA+A)) × 100 [formula]
Le pourcentage d'inhibition a été calculé sur une moyenne de deux mesures.
La référence est le finastéride, un médicament inhibiteur des 5α-reductase qui est utilisé comme contrôle positif à deux concentrations de 800 nM et 100 nM, correspondant à l'IC50 du finasteride pour la 5α-reductase de type I et la 5α-reductase de type II, respectivement.

The target of test [3] is T1, 5-α reductase type I. Conditions: reference value used to choose the positive control concentration; read-out: IC50 du finasteride; cited from earlier work.
Test [4] deals with T2, 5-α reductase type II. Conditions: reference value used to choose the positive control concentration; read-out: IC50 du finasteride; cited from earlier work.
In test [5] the test system is taux plasmatique de testostérone. The test can be described thus: Plasma testosterone level in mice after chronic i.p. administration (ELISA). In kind it is in vivo, souris SWISS. Conditions: young male mice, figure 1, result in words. As for the experimental part: […] […] • Letrozole • Dose étudiée : 2 mg/kg. • Mise en solution extemporanée dans le méthylcellulose • Honokiol • Doses étudiée : • Honokiol : 0.01, 0.05, 0.5, 2, 5, 10 mg/kg. • Mise en solution extemporanée dans le méthylcellulose • Voie d'administration : […].). • Volume d'injection : 10 ml/kg. Les dosages ont é[…] selon le protocole du kit ELISA commercialisé par la société AbCys S.A., France.

Like-named read-outs stand apart in the source and are kept apart here.

As a reminder, the inhibition is the percentage by which the read-out fell short of the control. As a reminder, the IC50 is the concentration that gives 50% inhibition.

For the compound `CC(C)(C)NC(=O)[C@H]1CC[C@H]2[C@@H]3CC[C@H]4NC(=O)C=C[C@]4(C)[C@H]3CC[C@]12C` [Finasteride, finastéride, reference compound], the inhibition at 0.1 µM at 5-α reductase type I [1] (100 nM, mean of two measurements, read-out: % inhibition de la 5-α reductase type I) was 11%; on 5-α reductase type II [2] (100 nM, mean of two measurements, read-out: % inhibition de la 5-α reductase type II), 55%. The inhibition at 0.8 µM amounted to 48% on 5-α reductase type I [1] (800 nM, mean of two measurements, read-out: % inhibition de la 5-α reductase type I) and 89% on 5-α reductase type II [2] (800 nM, mean of two measurements, read-out: % inhibition de la 5-α reductase type II). In addition, the values for the IC50 on 5-α reductase type I [3] and on 5-α reductase type II [4] were 800 nM and 100 nM, respectively.

As for `C=CCc1ccc(O)c(-c2ccc(O)c(CC=C)c2)c1` [Honokiol, honokiol], the inhibition at 1 µM on 5-α reductase type I [1] (1 µM, mean of two measurements, read-out: % inhibition de la 5-α reductase type I) is 1%. Also, the inhibition at 10 µM on 5-α reductase type I [1] (10 µM, mean of two measurements, read-out: % inhibition de la 5-α reductase type I) was 11%. Also, on 5-α reductase type I [1] (100 µM, mean of two measurements, read-out: % inhibition de la 5-α reductase type I), the inhibition at 100 µM stood at 64%. In addition, the “sélectivité 5-α réductase de type I / type II” value at 5-α reductase type I [1] (conclusion in words) is on record as “inhibiteur sélectif de la 5-α réductase de type I”. Also, the IC50 at 5-α reductase type I [1] (estimate from the dose-dependent inhibition) is roughly 80000 nM. Besides, the “% inhibition de la 5-α reductase type II” value on 5-α reductase type II [2] (1 µM), at 5-α reductase type II [2] (10 µM) and on 5-α reductase type II [2] (100 µM) was “n.i” throughout. Moreover, the “affinité pour la 5-α réductase de type II” value on 5-α reductase type II [2] (result in words) is reported as “aucune affinité n'est observée”. For the same compound, the “taux de testostérone plasmatique” value in test [5] is “modulation du taux de testostérone en fonction des doses administrées”.

The values are drawn from EP2114387B1, “USE OF COMPOSITIONS CONTAINING AT LEAST ONE LIGNANE AND/OR NEOLIGNANE FOR MODULATING TESTOSTERONE LEVELS” (Europe Finances, priority 2007, dated 2008).
